Data on nine molecules can be found in US5721366A, “Platelet aggregation inhibitors” (G. D. Searle & Co, priority 1995, dated 1998).

Assay [1] concerns Dog platelet aggregation (platelet-rich plasma). The experiment in a line: In-Vitro Platelet Aggregation in PRP (Dog), collagen-induced. It counts as cell-based. The note with it: Canis lupus familiaris, Platelet, collagen-induced aggregation (33 μg/ml final), 37° C. As for the experimental part: In-Vitro Platelet Aggregation in PRP--(Dog)
Healthy male or female dogs were fasted for 8 hours prior to drawing blood; then 60 ml whole blood was collected using a butterfly needle and 30 cc plastic syringe with 6 ml of 0.129M buffered sodium citrate (3.8%) (drawn from a minimum of 3 dogs and blood was pooled). The syringe was rotated carefully as blood was drawn to mix the citrate. Platelet-rich plasma (PRP) was prepared by centrifugation at 975×g for 3.17 minutes at room temperature, allowing the centrifuge to coast to a stop without braking. The PRP was removed from the blood with a plastic pipette and placed in a plastic capped 50 ml Corning conical sterile centrifuge tube which was held at room temperature. Platelet poor plasma (PPP) was prepared by centrifuging the remaining blood at 2000×g for 15 minutes at room temperature allowing the centrifuge to coast to a stop without braking. The platelet count in the PRP was routinely 2-4×10^8 platelets per ml. 400 μl of the PRP preparation and 50 μl of the compound to be tested or saline were preincubated for 2 minutes at 37° C. in a BioData aggregometer (BioData, Horsham, Pa.). 50 μl of collagen (diluted 1:3 with 5% dextrose and water solution, 33 μg/ml final concentration, equine tendon, Chronolog, Havertown, Pa.) was added to the cuvettes and the aggregation was monitored for 3 minutes. All compounds are tested in duplicate.
Results are calculated as follows:
Percent of control=[(maximal OD minus initial OD of compound) divided by (maximal OD minus initial OD of control saline)]×100. The % inhibition=100-(percent of control).
(§1) (NT in the following table indicates not tested.)

Assay [2] deals with Human platelet aggregation (platelet-rich plasma). The experiment in a line: Inhibition of Human Platelet Aggregation (PRP), collagen-induced. The assay is classed as cell-based. The settings on record: Homo sapiens, Platelet, collagen-induced aggregation (4 μg/ml final), 37° C. As for the experimental part: Inhibition of Human Platelet Aggregation (PRP)
Platelet rich plasma was prepared from citrated whole blood (3.8% Na citrate, 1:10 in 30 ml blood) withdrawn from the antecubital vein (n=1). PRP was prepared by centrifugation (Sorvall RC3C, DuPont, Wilmington, Del.) of the whole blood at 1000×g for 3 min, allowing the centrifuge to stop without braking. Platelet poor plasma (PPP) was prepared by centrifugation of PRP at 2000×g for 10 min. […] Aggregation was measured in a 4 channel aggregometer (model PAP-4C, Bio/Data Corp., Hatboro, Pa.). Aliquots of PPP were used to standardize the aggregometer for measurement of maximum light transmission. Platelet aggregation was measured as an increase in light transmission.
PRP (430 μl aliquot) was preincubated with 50 μl of various concentrations of compound (dissolved in 10% ETOH/water at a concentration of 10^-3 M. Compounds were diluted to desired concentration with 0.9% NaCl) for 2 min at 37° C., with stirring at 900 rpm, in the aggregometer. The stock collagen (Chronolog, Havertown, Pa., equine tendon) was diluted 1:10 with a 5% dextrose and water solution. The vehicle control response was obtained by adding 20 μl diluted collagen to the untreated aliquot of PRP+50 μl saline. Final collagen concentration was 4 μg/ml. Aggregation was recorded for 3 min following the addition of collagen. […] Percent inhibition was calculated by comparing treated and control samples. IC50 's were calculated graphically from dose-response curves. Average values and standard errors were calculated using the IC50 's of the individual experiments. Statistical analyses were done by an unequal variance, unpaired Student's t-test [Minitab Reference Manual, Minitab Inc., State College, Pa. (1988)]. Statistical significance was assumed when p<0.05 was found.
as §1

Structures can show the parent of a compound that is named as a salt.

What is called IC50 is the concentration at which inhibition is half-maximal.

Turning to `N=C(N)c1ccc(N2CCC(CC(=O)NCCC(=O)O)C2=O)cc1` (stereo not drawn) [Example 8, 3-[[[1-[4-(aminoiminomethyl)phenyl]-2-oxo-3-pyrrolidinyl]acetyl]amino]propionic acid], the IC50 in assay [1] and in assay [2] was 0.18 µM each time.

Turning to `CC(CC(=O)O)NC(=O)CC1CCN(c2ccc(C(=N)N)cc2)C1=O` (stereo not drawn) [Example 10, 3-[[[-[4-(aminoiminomethyl)phenyl]-2-oxo-3-pyrrolidinyl]acetyl]amino]butanoic acid], the IC50 amounted to 0.17 µM in assay [1] and 0.26 µM in assay [2].

With `N=C(N)c1ccc(N2CCC(CC(=O)NC(CC(=O)O)c3ccccc3)C2=O)cc1` (stereo not drawn) [Example 12, 3-[[[1-[4-(aminoiminomethyl)phenyl]-2-oxo-3-pyrrolidinyl]acetyl]amino]-3-phenylpropionic acid], the IC50 in assay [1] worked out at 0.39 µM; in assay [2] it was 0.29 µM.

For the molecule `N=C(N)c1ccc(N2CCC(CC(=O)NC[C@H](NC(=O)OCc3ccccc3)C(=O)O)C2=O)cc1` (stereo partly drawn) [Example 16, 3-[[[1-[4-(aminoiminomethyl)phenyl]-2-oxo-3-pyrrolidinyl]acetyl]amino]-N-[(phenylmethoxy)carbonyl]-L-alanine], the IC50 in assay [1] amounted to 0.1 µM; in assay [2], 0.31 µM.

For `C=C[C@H](CC(=O)O)NC(=O)NC1CCN(c2ccc(C(=N)N)cc2)C1=O` (stereo partly drawn) [Example 18, 3(S)-[[[[1-[4-(aminoiminomethyl]phenyl]-2-oxo-3-pyrrolidinyl]amino]carbonyl]amino]-4-pentenoic acid], the IC50 in assay [1] turned out to be 0.17 µM; in assay [2] it was 0.1 µM.

Regarding `C[C@@H](CCCC1CCN(c2ccc(C(=N)N)cc2)C1=O)CC(=O)O` (stereo partly drawn) [Example 19, 1-[4-(aminoiminomethyl)phenyl]-βS-methyl-2-oxo-3-pyrrolidinehexanoic acid, monohydrochloride.], the IC50 in assay [1] is 0.15 µM; in assay [2] it was 0.09 µM.

Turning to `N=C(N)c1ccc(N2CCCC(CC(=O)NC(C#Cc3ccccc3)CC(=O)O)C2=O)cc1` (stereo not drawn) [Example 28, 3-[[[1-[4-(aminoiminomethyl)phenyl]-2-oxo-3-piperidinyl]acetyl]amino]-5-phenyl-4-pentynoic acid.], the IC50 was 0.17 µM in assay [1] and 0.19 µM in assay [2].

On to `CC(CC(=O)O)NC(=O)CC1CCCN(c2ccc(C(=N)N)cc2)C1=O` (stereo not drawn) [Example 30, 3-[[[1-[4-(aminoiminomethyl)phenyl]-2-oxo-3-piperidinyl]acetyl]amino]-butanoic acid], for which the IC50 in assay [1] worked out at 0.38 µM; in assay [2], 0.28 µM.

As for `N=C(N)c1ccc(N2CCCC(CC(=O)NC(CC(=O)O)c3ccccc3)C2=O)cc1` (stereo not drawn) [Example 32, 3-[[[1-[4-(aminoiminomethyl)phenyl]-2-oxo-3-piperidinyl]acetyl]amino]-3-phenylpropanoic acid], the IC50 in assay [1] was found to be 0.25 µM; in assay [2] it was 0.16 µM.
